Converted amounts (≈) assume the structure as drawn. Where a name gives a salt, the structure may show the parent alone. Read-outs that look alike come from different tables or passages of the source.
Experiments:
Type in all cases: cell-based
[1] = system: Klebsiella pneumoniae PCI-602; assay: Antibacterial activity (MIC), Klebsiella pneumoniae PCI-602; settings: PCI602; Klebsiella pneumoniae PCI-602, Gram -; read-out: Minimum inhibitory concentration (MIC)
Protocol: (§1) The compounds of the present invention (A, C, D, E, F, G, H, I, J, L, O and P) and the known compound (X) as reference were dissolved in 0.1 N aqueous sodium hydroxide to prepare a solution of 5000 μg/ml in concentration. The compounds of the present invention (B, K, M and N) and the known compound (Y) were dissolved in sterilized distilled water to prepare a solution of 5000 μg/ml in concentration. Each solution was diluted with sterilized distilled water to prepare a standard solution with a concentration of each test compound: 1000 μg/ml. The test was carried out by a method as appointed by Japan Society of Chemotherapy [cf. Chemotherapy, 29, 76-79 (1981)(TOKYO)].

Enterobacter cloacae 963 = assay: Antibacterial activity (MIC), Enterobacter cloacae 963; settings: Enterobacter cloacae, 963, Enterobacter cloacae 963, Gram -; read-out: Minimum inhibitory concentration (MIC)
Protocol: as §1

[2] = system: Serratia marcescens IAM 1184; assay: Antibacterial activity (MIC), Serratia marcescens IAM 1184; settings: Serratia marcescens, IAM1184, Serratia marcescens IAM 1184, Gram -; read-out: Minimum inhibitory concentration (MIC)
Protocol: as §1

[3] = system: Morganella morganii IFO 3848; assay: Antibacterial activity (MIC), Morganella morganii IFO 3848; settings: Morganella morganii, IFO3848, Morganella morganii IFO 3848, Gram -; read-out: Minimum inhibitory concentration (MIC)
Protocol: as §1

Escherichia coli KC-14 = assay: Antibacterial activity (MIC), E. coli KC-14
Protocol: as §1

[4] = system: Enterobacter aerogenes ATCC 13048; assay: Antibacterial activity (MIC), Enterobacter aerogenes ATCC 13048; settings: Klebsiella aerogenes, ATCC13048; Enterobacter aerogenes ATCC 13048, Gram -; read-out: Minimum inhibitory concentration (MIC)
Protocol: as §1

[5] = system: Pseudomonas aeruginosa NCTC 10490; assay: Antibacterial activity (MIC), P. aeruginosa NCTC 10490; settings: Pseudomonas aeruginosa, NCTC10490, Pseudomonas aeruginosa NCTC 10490, Gram -; read-out: Minimum inhibitory concentration (MIC)
Protocol: as §1

[6] = system: Pseudomonas aeruginosa IFO 3445; assay: Antibacterial activity (MIC), P. aeruginosa IFO 3445; settings: Pseudomonas aeruginosa, IFO3445, Pseudomonas aeruginosa IFO 3445, Gram -; read-out: Minimum inhibitory concentration (MIC)
Protocol: as §1

[7] = system: Bacillus subtilis ATCC 6633; assay: Antibacterial activity (MIC), Bacillus subtilis ATCC 6633; settings: Bacillus subtilis, ATCC6633, Bacillus subtilis ATCC 6633, Gram +; read-out: Minimum inhibitory concentration (MIC)
Protocol: as §1

[8] = system: Pseudomonas aeruginosa E-2; assay: Antibacterial activity (MIC), P. aeruginosa E-2; settings: E2; Pseudomonas aeruginosa E-2, Gram -; read-out: Minimum inhibitory concentration (MIC)
Protocol: as §1

Shigella sonnei EW-33 = assay: Antibacterial activity (MIC), Shigella sonnei EW-33; settings: Shigella sonnei, EW33, Shigella sonnei EW-33, Gram -; read-out: Minimum inhibitory concentration (MIC)
Protocol: as §1

[9] = system: Staphylococcus epidermidis IAM-1296; assay: Antibacterial activity (MIC), S. epidermidis IAM-1296; settings: Staphylococcus epidermidis, IAM1296, Staphylococcus epidermidis IAM-1296, Gram +; read-out: Minimum inhibitory concentration (MIC)
Protocol: as §1

[10] = system: Staphylococcus aureus IID 803; assay: Antibacterial activity (MIC), S. aureus IID 803
Protocol: as §1

[11] = system: Proteus mirabilis IFO 3849; assay: Antibacterial activity (MIC), Proteus mirabilis IFO 3849; settings: IFO3849; Proteus mirabilis IFO 3849, Gram -; read-out: Minimum inhibitory concentration (MIC)
Protocol: as §1

Proteus vulgaris OX-19 = assay: Antibacterial activity (MIC), Proteus vulgaris OX-19
Protocol: as §1

[12] = system: Citrobacter freundii NIHJ 10018-68; assay: Antibacterial activity (MIC), Citrobacter freundii NIHJ 10018-68; settings: Citrobacter freundii, NIHJ10018, Citrobacter freundii NIHJ 10018-68, Gram -; read-out: Minimum inhibitory concentration (MIC)
Protocol: as §1

[13] = system: Streptococcus faecalis IID 682; assay: Antibacterial activity (MIC), Streptococcus faecalis IID 682; settings: Enterococcus faecalis
Protocol: as §1

[14] = system: Salmonella typhimurium IID 971; assay: Antibacterial activity (MIC), Salmonella typhimurium IID 971; settings: Salmonella enterica; Salmonella typhimurium IID 971, Gram -; read-out: Minimum inhibitory concentration (MIC)
Protocol: as §1

[15] = system: Staphylococcus aureus FDA 209P JC-1; assay: Antibacterial activity (MIC), S. aureus FDA 209P JC-1; settings: FDA209P, read-out: Minimum inhibitory concentration (MIC)
Protocol: as §1

[16] = system: Micrococcus luteus ATCC 9341; assay: Antibacterial activity (MIC), Micrococcus luteus ATCC 9341; settings: ATCC9341; Micrococcus luteus ATCC 9341, Gram +; read-out: Minimum inhibitory concentration (MIC)
Protocol: as §1

[17] = system: Acinetobacter calcoaceticus AC 54; assay: Antibacterial activity (MIC), Acinetobacter calcoaceticus AC 54; settings: AC54; Acinetobacter calcoaceticus AC 54, Gram -; read-out: Minimum inhibitory concentration (MIC)
Protocol: as §1

[18] = system: Escherichia coli NIHJ JC-2; assay: Antibacterial activity (MIC), E. coli NIHJ JC-2; settings: NIHJJC2; Escherichia coli NIHJ JC-2, Gram -; read-out: Minimum inhibitory concentration (MIC)
Protocol: as §1

[19] = KC14, Escherichia coli KC-14, Gram -, read-out: Minimum inhibitory concentration (MIC)
[20] = IID803, Staphylococcus aureus IID 803, Gram +, read-out: Minimum inhibitory concentration (MIC)
[21] = OX19, Proteus vulgaris OX-19, Gram -, read-out: Minimum inhibitory concentration (MIC)
[22] = Staphylococcus aureus FDA 209P JC-1, Gram +
[23] = Staphylococcus aureus, IID803, read-out: Minimum inhibitory concentration (MIC)
[24] = IID682, Streptococcus faecalis IID 682, Gram +, read-out: Minimum inhibitory concentration (MIC)

Compound | MIC [1] [µg/mL] | MIC (Enterobacter cloacae 963) [µg/mL] | MIC [2] [µg/mL] | MIC [3] [µg/mL] | MIC (Escherichia coli KC-14; [19]) [µg/mL] | MIC [4] [µg/mL] | MIC [5] [µg/mL] | MIC [6] [µg/mL] | MIC [7] [µg/mL] | MIC [8] [µg/mL] | MIC (Shigella sonnei EW-33) [µg/mL] | MIC [9] [µg/mL] | MIC [11] [µg/mL] | MIC (Proteus vulgaris OX-19; [21]) [µg/mL] | MIC [12] [µg/mL] | MIC [14] [µg/mL] | MIC [16] [µg/mL] | MIC [17] [µg/mL] | MIC [18] [µg/mL] | MIC [13, 24] [µg/mL] | further results
CN1Cc2csc3c(C(=O)O)c(=O)c4cc(F)c(N5CCCC5)c1c4n23 [Compound (F), 9,1-(Methylimino)methano-7-fluoro-8-(1-pyrrolidinyl)-5-oxo-5H-thiazolo[3,2-a]quinoline-4-carboxylic acid] | 0.006 (≈ 0.0161 µM) | 0.39 (≈ 1.04 µM) | 0.78 (≈ 2.09 µM) | 0.39 (≈ 1.04 µM) | 0.2 (≈ 0.536 µM) | 0.39 (≈ 1.04 µM) | 0.39 (≈ 1.04 µM) | 0.78 (≈ 2.09 µM) | 0.006 (≈ 0.0161 µM) | 0.39 (≈ 1.04 µM) | 0.1 (≈ 0.268 µM) | 0.025 (≈ 0.067 µM) | 0.39 (≈ 1.04 µM) | 0.025 (≈ 0.067 µM) | 1.56 (≈ 4.18 µM) | 0.2 (≈ 0.536 µM) | 0.39 (≈ 1.04 µM) | 0.006 (≈ 0.0161 µM) | 0.2 (≈ 0.536 µM) |  | MIC [10, 20]: 0.0125 µg/mL (≈ 0.0335 µM); MIC ([13]; IID682, read-out: Minimum inhibitory concentration (MIC)): 0.1 µg/mL (≈ 0.268 µM); MIC [15, 22]: 0.0125 µg/mL (≈ 0.0335 µM)
CC1CN(c2c(F)cc3c(=O)c(C(=O)O)c4scc5n4c3c2N(C)C5)CC(C)N1 (centres unmarked) [Compound (E), 9,1-(Methylimino)methano-7-fluoro-8-(3,5-dimethyl-1-piperazinyl)-5-oxo-5H-thiazolo[3,2-a]-quinoline-4-carboxylic acid] | 0.006 (≈ 0.0144 µM) | 0.2 (≈ 0.48 µM) | 0.78 (≈ 1.87 µM) | 0.39 (≈ 0.936 µM) |  | 0.2 (≈ 0.48 µM) | 0.39 (≈ 0.936 µM) | 1.56 (≈ 3.75 µM) | 0.025 (≈ 0.06 µM) | 1.56 (≈ 3.75 µM) | 0.05 (≈ 0.12 µM) | 0.1 (≈ 0.24 µM) | 0.78 (≈ 1.87 µM) |  | 1.56 (≈ 3.75 µM) | 0.1 (≈ 0.24 µM) | 0.39 (≈ 0.936 µM) | 0.025 (≈ 0.06 µM) | 0.1 (≈ 0.24 µM) | 0.2 (≈ 0.48 µM) | MIC (Escherichia coli KC-14; Escherichia coli, KC14, read-out: Minimum inhibitory concentration (MIC)): 0.05 µg/mL (≈ 0.12 µM); MIC [10, 23]: 0.05 µg/mL (≈ 0.12 µM); MIC (Proteus vulgaris OX-19; Proteus vulgaris, OX19, read-out: Minimum inhibitory concentration (MIC)): 0.05 µg/mL (≈ 0.12 µM); MIC ([15]; Staphylococcus aureus): 0.05 µg/mL (≈ 0.12 µM)
CN1Cc2csc3c(C(=O)O)c(=O)c4cc(F)c(N5CCN(O)CC5)c1c4n23 [Compound (L), 9,1-(Methylimino)methano-7-fluoro-8-(4-hydroxy-1-piperazinyl)-5-oxo-5H-thiazolo[3,2-a]quinoline-4-carboxylic acid] | 0.006 (≈ 0.0148 µM) | 0.1 (≈ 0.247 µM) | 0.78 (≈ 1.93 µM) | 0.1 (≈ 0.247 µM) | 0.1 (≈ 0.247 µM) | 0.1 (≈ 0.247 µM) | 0.39 (≈ 0.964 µM) | 0.78 (≈ 1.93 µM) | 0.0125 (≈ 0.0309 µM) | 0.78 (≈ 1.93 µM) | 0.05 (≈ 0.124 µM) | 0.1 (≈ 0.247 µM) | 0.2 (≈ 0.495 µM) | 0.0125 (≈ 0.0309 µM) | 0.39 (≈ 0.964 µM) | 0.1 (≈ 0.247 µM) | 0.78 (≈ 1.93 µM) | 0.025 (≈ 0.0618 µM) | 0.1 (≈ 0.247 µM) | 0.1 (≈ 0.247 µM) | MIC [10, 23]: 0.05 µg/mL (≈ 0.124 µM); MIC ([15]; Staphylococcus aureus): 0.05 µg/mL (≈ 0.124 µM)
CN1Cc2csc3c(C(=O)O)c(=O)c4cc(F)c(N5CCNCC5)c1c4n23 [Compound (C), 9,1-(Methylimino)methano-7-fluoro-8-(1-piperazinyl)-5-oxo-5H-thiazolo[3,2-a]quinoline-4-carboxylic acid] | 0.006 (≈ 0.0154 µM) | 0.05 (≈ 0.129 µM) | 0.2 (≈ 0.515 µM) | 0.05 (≈ 0.129 µM) | 0.05 (≈ 0.129 µM) | 0.05 (≈ 0.129 µM) | 0.2 (≈ 0.515 µM) | 0.39 (≈ 1 µM) | 0.006 (≈ 0.0154 µM) | 0.39 (≈ 1 µM) | 0.025 (≈ 0.0644 µM) | 0.05 (≈ 0.129 µM) | 0.1 (≈ 0.257 µM) | 0.006 (≈ 0.0154 µM) | 0.1 (≈ 0.257 µM) | 0.05 (≈ 0.129 µM) | 0.39 (≈ 1 µM) | 0.025 (≈ 0.0644 µM) | 0.05 (≈ 0.129 µM) | 0.05 (≈ 0.129 µM) | MIC [10, 20]: 0.05 µg/mL (≈ 0.129 µM); MIC [15, 22]: 0.05 µg/mL (≈ 0.129 µM)
CCNCC1CCN(c2c(F)cc3c(=O)c(C(=O)O)c4scc5n4c3c2N(C)C5)C1 (centres unmarked) [Compound (M), 9,1-(Methylimino)methano-7-fluoro-8-(3-ethylaminomethyl-1-pyrrolidinyl)-5-oxo-5H-thiazolo[3,2-a]quinoline-4-carboxylic acid hydrochloride] | 0.006 | 0.2 | 0.78 | 0.2 | 0.1 | 0.1 | 0.39 | 1.56 | 0.0125 | 1.56 | 0.05 | 0.05 | 0.39 | 0.05 | 0.78 | 0.1 | 0.2 | 0.05 | 0.1 | 0.05 | MIC [10, 20]: 0.0125 µg/mL; MIC [15, 22]: 0.025 µg/mL

Source: patent publication US4971967A, “Quinolinecarboxylic acid derivatives, antibacterial compositions and use” (Kanebo Ltd, priority 1989, dated 1990)
